From ChEMBL document CHEMBL1147252, “New bromotyrosine derivatives from an association of two sponges, Jaspis wondoensis and Poecillastra wondoensis” (2003)
Values after ≈ are worked out from the molar mass of the structure shown.

What was measured:
Assay type in all cases: functional
Staphylococcus aureus [1] = assay: Antibacterial activity against methicillin-resistant Staphylococcus aureus 003 after 18 hrs
Staphylococcus aureus [2] = assay: Antibacterial activity against methicillin-resistant Staphylococcus aureus KIST3 after 18 hrs
Staphylococcus aureus [3] = assay: Antibacterial activity against methicillin-resistant Staphylococcus aureus Y-80-12-844 after 18 hrs
[4] = test system: Staphylococcus epidermidis; assay: Antibacterial activity against ofloxacin-resistant Staphylococcus epidermidis 178 after 18 hrs
Staphylococcus aureus [5] = assay: Antibacterial activity against methicillin-resistant Staphylococcus aureus KIST4 after 18 hrs
Staphylococcus aureus [6] = assay: Antibacterial activity against methicillin-resistant Staphylococcus aureus KIST1 after 18 hrs
Staphylococcus aureus [7] = assay: Antibacterial activity against methicillin-resistant Staphylococcus aureus Y-80-12-1999 after 18 hrs
Staphylococcus aureus [8] = assay: Antibacterial activity against methicillin-resistant Staphylococcus aureus Y-80-12-1109 after 18 hrs
Staphylococcus aureus [9] = assay: Antibacterial activity against methicillin-resistant Staphylococcus aureus 004 after 18 hrs
[10] = test system: Staphylococcus epidermidis; assay: Antibacterial activity against ofloxacin-resistant Staphylococcus epidermidis 291 after 18 hrs
Staphylococcus aureus [11] = assay: Antibacterial activity against methicillin-resistant Staphylococcus aureus KIST2 after 18 hrs
SK-MEL-2 = assay: Cytotoxicity against human SK-MEL-2 cells; conditions: read-out: ED50 (the source's name)
SK-OV-3 = assay: Cytotoxicity against human SKOV3 cells; conditions: read-out: ED50 (the source's name)
XF498 = assay: Cytotoxicity against human XF498 cells; conditions: read-out: ED50 (the source's name)
A549 = assay: Cytotoxicity against human A549 cells; conditions: read-out: ED50 (the source's name)
HCT-15 = assay: Cytotoxicity against human HCT15 cells; conditions: read-out: ED50 (the source's name)

Structure (SMILES)	MIC (Staphylococcus aureus [1]) [µg/mL]	MIC (Staphylococcus aureus [2]) [µg/mL]	MIC (Staphylococcus aureus [3]) [µg/mL]	MIC [4] [µg/mL]	MIC (Staphylococcus aureus [5]) [µg/mL]	MIC (Staphylococcus aureus [6]) [µg/mL]	MIC (Staphylococcus aureus [7]) [µg/mL]	MIC (Staphylococcus aureus [8]) [µg/mL]	MIC (Staphylococcus aureus [9]) [µg/mL]	MIC [10] [µg/mL]	MIC (Staphylococcus aureus [11]) [µg/mL]	EC50 (SK-MEL-2) [µg/mL]	EC50 (SK-OV-3) [µg/mL]	EC50 (XF498) [µg/mL]	EC50 (A549) [µg/mL]	EC50 (HCT-15) [µg/mL]
O=C(NCCSSSCCNC(=O)/C(Cc1ccc(O)c(Br)c1)=N/O)/C(Cc1ccc(O)c(Br)c1)=N/O	3.1 (≈ 4.45 µM)	6.3 (≈ 9.05 µM)	25 (≈ 35.9 µM)	0.8 (≈ 1.15 µM)	3.1 (≈ 4.45 µM)	3.1 (≈ 4.45 µM)	6.3 (≈ 9.05 µM)	6.3 (≈ 9.05 µM)	3.1 (≈ 4.45 µM)	0.8 (≈ 1.15 µM)	3.1 (≈ 4.45 µM)					
O=C(NCCSSCCNC(=O)/C(Cc1cc(Br)c(O)c(Br)c1)=N/O)/C(Cc1ccc(O)c(Br)c1)=N/O	12.5 (≈ 16.8 µM)	12.5 (≈ 16.8 µM)	25 (≈ 33.6 µM)	3.2 (≈ 4.31 µM)	12.5 (≈ 16.8 µM)	12.5 (≈ 16.8 µM)	12.5 (≈ 16.8 µM)	12.5 (≈ 16.8 µM)	12.5 (≈ 16.8 µM)	3.2 (≈ 4.31 µM)	12.5 (≈ 16.8 µM)	0.9 (≈ 1.21 µM)	1.38 (≈ 1.86 µM)	0.92 (≈ 1.24 µM)	1.34 (≈ 1.8 µM)	3.31 (≈ 4.45 µM)
O=C(NCCSSCCNC(=O)/C(Cc1cc(Br)c(O)c(-c2cc(C/C(=N\O)C(=O)NCCSSCCNC(=O)/C(Cc3ccc(O)c(Br)c3)=N/O)cc(Br)c2O)c1)=N/O)/C(Cc1ccc(O)c(Br)c1)=N/O [BISAPRASIN]	12.5 (≈ 9.42 µM)	6.3 (≈ 4.75 µM)	25 (≈ 18.8 µM)	6.3 (≈ 4.75 µM)	6.3 (≈ 4.75 µM)	12.5 (≈ 9.42 µM)	50 (≈ 37.7 µM)	50 (≈ 37.7 µM)	6.3 (≈ 4.75 µM)	12.5 (≈ 9.42 µM)	6.3 (≈ 4.75 µM)	2.94 (≈ 2.22 µM)	2.78 (≈ 2.1 µM)	2.44 (≈ 1.84 µM)	3.4 (≈ 2.56 µM)	6 (≈ 4.52 µM)
O=C(NCCSSCCNC(=O)/C(Cc1ccc(Oc2cc(C/C(=N\O)C(=O)NCCSSCCNC(=O)/C(Cc3ccc(O)c(Br)c3)=N/O)cc(Br)c2O)c(Br)c1)=N/O)/C(Cc1ccc(O)c(Br)c1)=N/O [BISPSAMMAPLIN A]	> 50	> 50	> 50	> 50	> 50	> 50	> 50	> 50	> 50	> 50	> 50	1.02 (≈ 0.769 µM)	1.52 (≈ 1.15 µM)	1.1 (≈ 0.829 µM)	1.53 (≈ 1.15 µM)	3.35 (≈ 2.52 µM)
COc1cccc2c1C(=O)c1c(O)c3c(c(O)c1C2=O)C[C@@](O)(C(=O)CO)C[C@@H]3O[C@H]1C[C@H](N)[C@H](O)[C@H](C)O1 [DOXORUBICIN]												0.03 (≈ 0.0552 µM)	0.15 (≈ 0.276 µM)	0.1 (≈ 0.184 µM)	0.04 (≈ 0.0736 µM)	0.09 (≈ 0.166 µM)
C[C@@H](O)[C@H]1C(=O)N2C(C(=O)O)=C(S[C@@H]3CN[C@H](C(=O)N(C)C)C3)[C@H](C)[C@H]12 [MEROPENEM]	3.1 (≈ 8.08 µM)	50 (≈ 130 µM)	50 (≈ 130 µM)	0.8 (≈ 2.09 µM)	50 (≈ 130 µM)	25 (≈ 65.2 µM)	50 (≈ 130 µM)	50 (≈ 130 µM)	3.1 (≈ 8.08 µM)	1.6 (≈ 4.17 µM)	3.1 (≈ 8.08 µM)					
O=C(NCCSSCCNC(=O)/C(Cc1ccc(O)c(Br)c1)=N/O)/C(Cc1ccc(O)c(Br)c1)=N/O [PSAMMAPLIN A]												0.13 (≈ 0.196 µM)	0.14 (≈ 0.211 µM)	0.57 (≈ 0.858 µM)	0.57 (≈ 0.858 µM)	0.68 (≈ 1.02 µM)
COC(=O)NCCSSCCNC(=O)/C(Cc1ccc(O)c(Br)c1)=N/O [PSAMMAPLIN D]	> 25	> 25	> 25	> 25	> 25	> 25	> 25	> 25	> 25	> 25	> 25	0.2 (≈ 0.429 µM)	0.17 (≈ 0.365 µM)	0.6 (≈ 1.29 µM)	0.8 (≈ 1.72 µM)	1.23 (≈ 2.64 µM)
